Reference: patent US20060270614A1, “Use of chalcones for the treatment of viral disorders” (priority 2005, published 2006)
pIC50: −log10 of the molar value. Read-outs that look alike come from different tables or passages of the source.

System: HSV-1
Assay: HSV-1 assay: CPE inhibition in Vero cells, MTS dye uptake
Format: cell-based, herpes simplex virus-1
Conditions: read-out: IC50 (inhibitory concentration at which the compound provides 50% CPE reduction)
Method: In vitro evaluation of anti-viral activity can be determined by plaque reduction as reported in J. Nat. Prod. (1990) 53, 340-344; or as described in Example 1. To pre-grown Vero cells (ATCC CCL-81 is added a virus suspension (ATCC VR-260) mixed with complete medium containing various concentrations of the test compound and the mixture is incubated until maximum cytopathic effect (CPE) is observed in the untreated virus control culture. The CPE inhibition is determined by adding a dye (MTS, (3-[4,5-dimethylthiazol-2-yl-5]-[3-carboxymethyoxyphenyl]-2-[4-sulfophenyl]-2H tetrazolium)) uptake procedure (Promega's Cell Titer Aqueous One Solution). This method measures cell viability and is based on the reduction of the tetrazolium-based MTS by mitochondrial enzymes of viable host cells to MTS formazan. The purple color of the MTS formazan is then measured spectrophotometrically. The optical density (OD) value of each culture is a function of the amount of formazan produced which is proportional to the number of viable cells.
Vero cells (ATCC CCL-81) are pregrown in 96-well tissue culture plates using Dulbecco's Modified Eagle's Medium (DMEM) supplemented with 10% heat-inactivated fetal bovine serum (FBS), L-Glutamine, penicillin, and streptomycin.
To each of the replicate cell cultures is added 50 μL of the test article solution and 50 μL of virus suspension (ATCC VR-260). The multiplicity of infection used is about 0.05 plaque-forming unit (PFU) per cell. Cell controls containing medium alone, virus-infected controls containing medium and virus, drug cytotoxicity controls containing medium and each drug concentration, reagent controls containing culture medium only (no cells), and the test article colorimetric controls containing the test article and medium (no cells) are run simultaneously with the test samples. The plates are incubated at 37° C. in a humidified atmosphere containing 5% CO2 until maximum CPE (cytopathic effect) is observed in the untreated virus control cultures (Day 5).
CPE inhibition is determined by a dye (MTS) uptake procedure (Promega's Cell Titer Aqueous One Solution). This method measures cell viability and is based on the reduction of the tetrazolium-based MTS by mitochondrial enzymes of viable host cells to MTS formazan. MTS (10 μl) is added to each of the plate wells. The plates are incubated at 37° C. for 4 hours. The purple color of the MTS formazan is then measured spectrophotometrically at 490/650 nm. The optical density (OD) value of each culture is a function of the amount of formazan produced which is proportional to the number of viable cells.
The percent of CPE (cytopathic effect) reduction of the virus-infected wells (antiviral efficacy) and the percent cell viability of uninfected drug control wells (cytotoxicity) are calculated. […]

[1] = Human alphaherpesvirus 1, 120 h, Vero cells (ATCC CCL-81), virus ATCC VR-260, about 0.05 PFU per cell, Day 5, MTS

COc1ccc(/C=C/C(=O)c2ccc(O)cc2O)cc1 [2′,4′-Dihydroxy-4-methoxychalcone]
pIC50 [1]: 4.95

O=C1/C(=C/c2ccc(O)c(O)c2)Oc2cc(O)ccc21 [(Z)-2-(3,4-Dihydroxybenzylidene)-6-hydroxybenzofuran-3(2H)-one, reference compound]
pIC50 [1]: < 4.00

COc1ccc(/C=C/C(=O)c2ccc(O)cc2O)cc1OC [2′,4′-Dihydroxy-3,4-dimethoxychalcone]
pIC50 (Human alphaherpesvirus 1, Vero, 120 h): 5.08

O=C(/C=C/c1ccc(O)c(O)c1)c1ccc(O)cc1O [2′,3,4,4′-Tetrahydroxychalcone]
pIC50 [1]: 4.58
